The subject of data set [1] is HCC cell lines. The conditions noted are these: HCC cell lines carrying amplified SLC29A2 vs non-amplified cells; FIG. 5A.
Experimental: The cell proliferation and cell viability were detected by […] BLUE® reagent (DAL1100, Thermo Fisher) according to the manufacturer's instruction. […] BLUE® for incubation at 37° C. for 1 hour. The ALAMAR BLUB® fluorescence was excited at 560 nm and measured at 590 nm.
Data set [2] relates to Stat3. The following applies: SLC29A2 ectopically expressing cells, FIG. 5D; for SLC29A2-induced Stat3 phosphorylation: 6B.
Data set [3] relates to SK-hep1 cells. Kind of data set: Cell viability assay (ALAMAR BLUE), SK-hep1 cells with or without ectopic SLC29A2. The class given is cell-based. The protocol: HCC cell lines (Sk-hep1 and Mahlavu) were maintained in Dulbecco's modified Eagle's medium (DMEM) with 10% fetal bovine serum, 1% non-essential amino acid, 1% L-glutamine, and 1% penicillin/streptomycin. All cells were tested for mycoplasma contamination.
pcDNA3.0/HA˜SLC29A2 was generated according to Chen et al. (2010) (Hepatologs, 52(5), 1690-1701), To stably express SLC29A2 or STAT3D, HCC cell lines were transfected with the plasmid according to the instruction manual by JetPrime transfection reagent (Polyplus), and further selected in the presence of G418 (SK-hep1: 800 μg/mL, Mahlavu: 500 μg/mL)
A general note: Resazurin is reduced to fluorescent resorufin, in cell work by metabolically active cells.

Data set [4] relates to SLC29A2-expressing cells. Put plainly: Trans-well (Boyden chamber) migration assay. The class given is cell-based. The conditions noted are these: SLC29A2 ectopically expressing cells; FIG. 5C. The protocol: A total of 1×10^4 cells were seeded in the upper chamber of 8 micron Boyden chamber insert (#MCEP24H48, Millipore) containing a serum-free medium. The inserts were then hanged on the 24-well plate containing a complete medium. After 16 hours, the non-migrated cells were wiped out and the migrated cells were fixed with methanol and stained with Liu's stain. The migrated cells were counted by ImageJ software.

Data set [5] relates to SLC29A2. Put plainly: Confocal microscopy of nuclear translocation. The class given is cell-based. The conditions noted are these: FIG. 5E. The protocol:
Cells were grown on glass slides. After washing with ice-cold PBS, cells were fixed with methanol, blocked with 5% BSA, and incubated with primary antibodies at 4° C. overnight. The slides were washed with PBS, and incubated with Alexa488 or AIexa594-conjugated secondary antibodies. The slides were then washed with PBS, stained with DAPI and mounted with Dako fluorescent mounting medium (#S3025, Dako). The immunostained cells were acquired by Zeiss LSM 700 laser-scanning microscope with 63X/1.4 objective. The images were analyzed with ZEN, AxioVision, and imagesJ software.

In data set [6] the test system is late-stage HCC. The conditions noted are these: cited from earlier work.
Data set [7] relates to luciferase-carrying SK-hep1 cells. The protocol:
All animal procedures were conducted under the approval of the institutional animal care and user committee of Academia Sinica. […] The luciferase activities were detected by the IVIS Image system every two weeks, and the images were analyzed with IVIS operating software.
The mice wore sacrificed 48 weeks after the tumor injection or before the tumors grew larger than allowed. The tumor samples were collected and fixed with 4% paraformaldehyde.

Structures are written as SMILES. Where two headings read alike, the source gives them in different places.

We go through two molecules from patent US10912777B2 (Academia Sinica, priority 2016, dated 2021).

For the molecule `OCCN(CCO)c1nc(N2CCCCC2)c2nc(N(CCO)CCO)nc(N3CCCCC3)c2n1` [dipyridamole], the “sensitivity of cells to dipyridamole (cell viability, IC50)” value in data set [1] is “sensitive to dipyridamole compared to non-amplified cells”. Moreover, in data set [2], the “cyclin D1 down-regulation” value is recorded as “down-regulation of cyclin D1 was reversed” and the “SLC29A2-induced Stat3 phosphorylation” value is on record as “inhibits the SLC29A2-induced Stat3 phosphorylation”. For the same molecule, in data set [2] (listed as SLC29A2 inhibitor), the “SLC29A2-induced Stat3 phosphorylation” value is recorded as “decreased SLC29A2-induced Stat3 phosphorylation in a dosage-dependent manner”. Moreover, the “sensitivity of cells to dipyridamole (cell viability)” value in data set [3] (SK-hep1 cells expressing SLC29A2 vs control cells, FIG. 5B) is “sensitive to dipyridamole than control cells”. In data set [4], the trans-well migration result is reported as “reduced trans-well migration of SLC29A2-expressing cells”. In addition, in data set [5], the Stat3 nuclear translocation result was “decreased SLC29A2 and Stat3 nuclear translocation”; the “nuclear translocation of SLC29A2” value is “reduces the nuclear translocation of SLC29A2”.
For the molecule `CNC(=O)c1cc(Oc2ccc(NC(=O)Nc3ccc(Cl)c(C(F)(F)F)c3)cc2)ccn1` [sorafenib], the “resistance of cells to sorafenib (cell viability)” value in data set [3] (SLC29A2 expressing cells vs control cells, FIG. 6A) was “much more resistant to sorafenib as compared to the control cells”. For the same molecule, the “prolongation of overall survival” value in data set [6] (late-stage HCC patients who received sorafenib) was 3˜6 months. Besides, in data set [6] (patients who received sorafenib), the side effects result is listed as “severe side effects”. Also, the “body weight changes and toxicity to mice” value in data set [7] (mouse, in vivo) was “no significant body weight changes and toxicity”. In addition, the “tumor burden (IVIS)” value in data set [7] (oral gavage once a day, sorafenib 10 mg/kg/day, dipyridamole 25 mg/kg/day, 6 weeks after treatment, FIG. 6D) is “reduced the tumor burden in both SLC29A2-expressing and control groups”.
